In PubChem BioAssay (NCI):
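Compound exposure: 48 hours, 5 concentrations, 96-well plates. GI50 marks 50% less growth. TGI: concentration producing complete growth inhibition.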

What was measured:
Assay in all cases: NCI anticancer screen, dose series, 48 h
HL-60(TB) leukemia = system: HL-60(TB) leukemia
HCT-15 colon = system: HCT-15 colon
UACC-257 melanoma = system: UACC-257 melanoma
HT29 colon = system: HT29 colon
SF-295 CNS = system: SF-295 CNS
UO-31 renal = system: UO-31 renal
MDA-MB-435 = system: MDA-MB-435
ACHN renal = system: ACHN renal
CCRF-CEM leukemia = system: CCRF-CEM leukemia
NCI-H460 lung = system: NCI-H460 lung

SMILES	TGI (HL-60(TB) leukemia) [µM]	TGI (HCT-15 colon) [µM]	TGI (UACC-257 melanoma) [µM]	TGI (HT29 colon) [µM]	TGI (SF-295 CNS) [µM]	TGI (UO-31 renal) [µM]	TGI (MDA-MB-435) [µM]	TGI (ACHN renal) [µM]	TGI (CCRF-CEM leukemia) [µM]	TGI (NCI-H460 lung) [µM]	GI50 (CCRF-CEM leukemia) [µM]	GI50 (HL-60(TB) leukemia) [µM]	GI50 (NCI-H460 lung) [µM]	GI50 (HCT-15 colon) [µM]	GI50 (UACC-257 melanoma) [µM]	GI50 (HT29 colon) [µM]	GI50 (SF-295 CNS) [µM]	GI50 (UO-31 renal) [µM]	GI50 (MDA-MB-435) [µM]	GI50 (ACHN renal) [µM]
COc1c2c(c3c(c1CCC(=O)O)OC(C)(C)C=C3)OC(C)(C)C=C2	> 100	> 100	> 100	> 100	> 100	> 100	> 100	> 100												
O=C(Cn1ccc(=O)[nH]c1=O)Nc1ccc(C(=O)O)c(O)c1	> 100	> 100	> 100	> 100	> 100	> 100	> 100	> 100	> 100	> 100										
CCN(CC)CCn1ccc(=O)c2cc3c(=O)ccn(CCN(CC)CC)c3c(C)c21	3.54	15.6	33.9	12.7	17.2	17.1	16.7	20.1	29.6	3.47										
CCCCCn1c(=N)n(CC(O)COc2cccc(C)c2)c2ccccc21 (centres undefined)	4.9	20.3	12	11.2	22.8	17.6	11.2	23.8	15.2	17.3	3.12	2.15	4.62	4.93	3.36	2.73	5.62	4.03	3	8.85
C[C@@H](C(=O)Nc1ccc(Cl)cc1)C1CCC(c2ccnc3ccc(F)cc23)CC1 (some centres undefined)	24.7	> 100	53.7	40.4	> 100	> 100	54.9	> 100	> 100	45.5	3.43	5.22	4.3	8.32	13.3	5.81	8.12	3.94	9.08	4.61
Cc1cc(N(CCC#N)S(=O)(=O)c2ccccc2)ccc1/C=C1N=C(/C=C/c2ccccc2)OC\1=O	> 100	> 100	> 100	> 100	> 100	> 100		> 100	> 100	> 100										
Cc1[c-]onc1C.Cc1[c-]onc1C.[Ag].[Ag].[NH-]S(=O)(=O)c1ccc(N=Nc2cc(N=Nc3ccc(S([NH-])(=O)=O)cc3)c3c(NC(=O)C(Cl)Cl)cccc3c2OC(=O)C(Cl)Cl)cc1	26.7	32.1		21.7	> 50	12.8	16.3	11.9	32.7	18.1	9.28	11	6.53	9.82		9.29	33.9	6.06	7.87	5.13
COc1cccc(NC(=O)CC(=O)N2N=C(N(CCC#N)c3ccc(Cl)cc3)CC2c2ccccc2)c1 (centres undefined)	> 100	> 100	> 100	> 100	> 100	> 100		> 100	> 100	> 100										
COc1ccc2c(c1)C(O)(C(F)(F)F)c1cc(C(=O)C(F)(F)F)c3ccccc3c1N2 (centres undefined)	43.2	21	26.4	20.3	26.5	21.5		18.1	29.2	22.3										
CCOC(=O)C1=C(C)N(Cc2ccccc2)C(C)=C(C(=O)OCC)C1c1ccccc1O	58.6	> 100	70.7	> 100	> 100	> 100		> 100	69.5	> 100										
CN(C(=O)C12C3C4C5C3C1(C(=O)O)C5C42)C(C)(C)C (centres undefined)	32	> 100	> 100	> 100	> 100	> 100		> 100	> 100	> 100										
CC1=NOC(=O)/C1=C/c1ccccc1O	> 100	> 100	> 100	> 100	> 100	> 100		> 100	> 100	> 100										
Cc1sc(C(=O)Nc2cc(C(=O)NCCCN(C)C)n(C)c2)cc1NC(=O)CCCN1C(=O)c2cccc3cccc(c23)C1=O	> 100	> 100		> 100	> 100	> 100	> 100	> 100	> 100	> 100	> 100	> 100	> 100	> 100		> 100	> 100	> 100	> 100	> 100
Nc1ccn(Cc2ccc(C34CC5CC(CC(C5)C3)C4)c(O)c2)c(=O)n1	> 100	> 100		> 100	> 100	> 100	> 100	> 100		> 100		62.9	> 100	> 100		> 100	31.5	> 100	> 100	> 100
Cc1ccc2c(ccc3c[n+]4c5ccccc5ccc4n32)c1	10.2	> 100	3.82	8.77	6.91	54	2.55	> 100	10.6	5.41	2.46	2.5	1.2	7.33	1.43	2.08	1.56	5.42	1.13	4.12
COc1cc(Cl)cc(-c2nn(C(=O)NCCN3CCOCC3)cc2-c2ccncc2)c1	95.1	> 100	> 100	> 100	13.5	64.6	3.61	90.2	> 100	> 100	5.91	3.22	3.81	3.79	18.4	3.98	2.75	3.85	0.604	5.52
CC(C)(C)C#CC1=C(Br)C(=O)OC1		> 22.3	4.39	> 100	18.2	3.22	24.1		> 27.7	15.1	2.45		3.72	1.6	0.886	0.116	6.9	0.9	7.44	0.266
CNC(=O)c1cncc(/C=C/c2ccccc2C)c1	> 25	> 25	> 25	> 25	> 25	> 25	> 25	> 25	> 25	> 25	> 25	> 25	> 25	> 25	> 25	> 25	> 25	> 25	> 25	> 25

SMILES	TGI (HL-60(TB) leukemia) [µM]	TGI (HCT-15 colon) [µM]	TGI (UACC-257 melanoma) [µM]	TGI (HT29 colon) [µM]	TGI (SF-295 CNS) [µM]	TGI (UO-31 renal) [µM]	TGI (MDA-MB-435) [µM]	TGI (ACHN renal) [µM]	TGI (CCRF-CEM leukemia) [µM]	TGI (NCI-H460 lung) [µM]	GI50 (CCRF-CEM leukemia) [µM]	GI50 (HL-60(TB) leukemia) [µM]	GI50 (NCI-H460 lung) [µM]	GI50 (HCT-15 colon) [µM]	GI50 (UACC-257 melanoma) [µM]	GI50 (HT29 colon) [µM]	GI50 (SF-295 CNS) [µM]	GI50 (UO-31 renal) [µM]	GI50 (MDA-MB-435) [µM]	GI50 (ACHN renal) [µM]
C=CCc1c2c(c(OC)c3ccoc13)C(=O)/C(=C/c1ccccc1OC)O2		> 100	> 100	> 100	> 100	> 100	> 100	> 100	> 100	> 100	3.44		3.46	3.6	6.41	3.98	3.67	4.98	3.12	4.33
CC1=NCCc2c1[nH]c1cc(O)ccc21	> 100	> 100	> 100	> 100	> 100	> 100		> 100	> 100	> 100										
COc1cc(C2c3cc4c(cc3OC(N3CCCC3)C2C)OCO4)cc(OC)c1OC (centres undefined)		13	49	1.22	2.55	41.2	1.84	38.3	> 51.9	14.5										
COc1ccccc1NC(=O)C1=C(C)NC(C)=C(C(=O)Nc2ccccc2OC)C1c1ccccc1F	> 100	> 100	> 100	> 100	> 100	> 100		> 100	> 100	> 100										
CCCCCCCCCc1cc(=O)c2ccc(OCc3ccccc3)cc2o1	46.4	> 100	> 100	> 100	> 100	> 100		> 100	> 100	> 100										
Nc1cc2cccc[n+]2c2cc(Cl)ccc12			20.2				48.7		35.3	49.6	3.23	16.3	18		3.75	37.4	23.1	43.6	15.7	34.6
Nc1c(C(=O)Nc2cccc([N+](=O)[O-])c2)sc2nc3c(cc12)C(O)CCC3 (centres undefined)	> 100	> 100	> 100	> 100	> 54	> 100	2.78	> 100		> 100		2.37	4.93	2.82	> 29.8	2.89	4.35	> 100	0.403	30.6
CCCC[C@H](NC(=O)[C@H]1CCCN1C)C(=O)N(C)[C@H](C[C@@H](OC(C)=O)c1nc(C(=O)N[C@@H](Cc2ccccc2)C[C@H](C)C(=O)OCC)cs1)C(C)C	0.0253	> 33.3	> 33.3	0.0414	4.13	> 33.3	0.00655		6.41	4.04	0.0122	0.0058	0.0105	0.0365	7.81	0.00974	0.0139	0.209	< 0.00333	
CC(C)C(=O)Nc1nc2nc[nH]c2c(=O)[nH]1	> 100	> 100	> 100	> 100	> 100	> 100		> 100	> 100	> 100										
NC(=S)N/N=C(/CC(=O)c1ccccc1)C(=O)Nc1ccc(Cl)c(Cl)c1	> 100	> 100	> 100	> 100	> 100	> 100		> 100	91.6	> 100										
CCCCCCCCCCCCOC(=S)NCCCC	43.1	37.2	44	38.1	> 100	20.1		50.5	80.4	53.2										
COCCN1C2=CCCCC2=Nc2c1nc(N)[nH]c2=O	> 100	> 100	> 100	> 100	> 100	> 100		> 100	> 100	> 100										
COC(=O)CCC1CCc2c(OC)ccc(O)c2C1=O (centres undefined)	> 100	> 100	> 100	> 100	> 100	> 100		> 100	> 100	> 100										
c1cc(-c2cn3ccsc3n2)ccn1	> 60.1	> 62	> 100	> 100	> 100	> 100		> 100	> 60.5	> 100										
Cc1ccc(C(=O)O/N=C2/CCC/C2=C\c2ccccc2)cc1	> 100	> 100	> 100	> 100	> 100	> 100		> 100	> 100	> 100										
CCCN=Cc1cc(Cc2ccc(O)c(C=NCCC)c2)ccc1O	5	12.3	60.8	27.6	52.5	36.3	> 100	53.4		51.9										
COc1ccc(-c2ccc(/C=N/n3c(COc4ccc(Cl)cc4Cl)n[nH]c3=S)o2)c([N+](=O)[O-])c1	51.2	> 100		79.6	36.5	> 100	38	> 100	42	46.3	16.3	21.5	18	28.6		34.2	18	43.9	18.1	45.3
